Here are results for three molecules from publication PMC11915801, “Evolutionary trajectory of bacterial resistance to antibiotics and antimicrobial peptides in Escherichia coli” (mSystems, 2025).

Converted amounts (≈) assume the structure as drawn. Like-named read-outs stand apart in the source and are kept apart here. Where a SMILES comes first, the peptide text is derived from it.

Assay [1] relates to E. coli K-12 MG1655. Nature of the assay: microbe, parasite or virus in culture. Type of assay: cell-based, Escherichia coli. The settings on record: Escherichia coli. The method in brief:
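Strain was serially passaged 120 times in MH broth containing antibiotic or AMP at sub-inhibitory concentration (12 h, 37℃, 200 rpm each). Dosing was re-adjusted as MIC shifted. MICs came from CLSI broth microdilution, reading the lowest concentration with no visible bacteria.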

In assay [2] the test system is AMP120 (evolved MG1655). Nature of the assay: microbe, parasite or virus in culture. Type of assay: cell-based, Escherichia coli. The note with it: Escherichia coli, MG1655; broth microdilution; ampicillin-evolved strain. The essentials:
(§1)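 Per CLSI guidance, broth microdilution defined the MIC as the lowest concentration showing no visible bacteria. Strains were antibiotic-evolved MG1655 derivatives, with three monoclonal isolates selected from each evolved population.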

In assay [3] the test system is AZI120 (evolved MG1655). Nature of the assay: microbe, parasite or virus in culture. The settings on record: Escherichia coli, MG1655; broth microdilution; azithromycin-evolved strain. Type of assay: cell-based, Escherichia coli. The essentials:
as §1

The subject of assay [4] is CHL80 (evolved MG1655). Nature of the assay: microbe, parasite or virus in culture. The settings on record: Escherichia coli, MG1655; broth microdilution; chloramphenicol-evolved strain. The class given is cell-based, Escherichia coli. The method in brief:
as §1
Background: Broth dilution looks for growth in wells or tubes with falling amounts of substance.

For assay [5], the system named is CIP120 (evolved MG1655). Nature of the assay: microbe, parasite or virus in culture. Type of assay: cell-based, Escherichia coli. The note with it: Escherichia coli; broth microdilution; ciprofloxacin-evolved strain. The essentials:
as §1

Assay [6] concerns COL120 (evolved MG1655). Nature of the assay: microbe, parasite or virus in culture. The note with it: Escherichia coli, MG1655; broth microdilution; colistin-evolved strain. Type of assay: cell-based, Escherichia coli. The method in brief: as §1
In assay [7] the test system is DOX120 (evolved MG1655). Nature of the assay: microbe, parasite or virus in culture. The settings on record: Escherichia coli, MG1655; broth microdilution; doxycycline-evolved strain. The class given is cell-based, Escherichia coli. The method in brief:
as §1

Assay [8] deals with KAN80 (evolved MG1655). Nature of the assay: microbe, parasite or virus in culture. The class given is cell-based, Escherichia coli. The settings on record: Escherichia coli, MG1655; broth microdilution; kanamycin-evolved strain. The essentials: as §1
Assay [9] deals with NIT70 (evolved MG1655). Nature of the assay: microbe, parasite or virus in culture. Type of assay: cell-based, Escherichia coli. The note with it: Escherichia coli, MG1655; broth microdilution; nitrofurantoin-evolved strain. The method in brief: as §1
Assay [10] has as its system TMP30 (evolved MG1655). Nature of the assay: microbe, parasite or virus in culture. The settings on record: for MIC: Escherichia coli, MG1655, broth microdilution, trimethoprim-evolved strain. The class given is cell-based, Escherichia coli. The essentials: as §1
Assay [11] deals with MG1655 WT. Nature of the assay: microbe, parasite or virus in culture. Type of assay: cell-based. The settings on record: Escherichia coli, MG1655, read-out: MIC values of MG1655 with gene silencing, WT. The source says: (§2) The broth microdilution method was used to measure the MIC values of antibiotics and peptides according to the Clinical and Laboratory Standards Institute guidelines. The MIC value is defined as the lowest drug concentration without visible bacteria.
(§3) The engineered CRISPR/CRISPR-associated protein 9 (Cas9) system was used to repress the dnaA, deoB, icd, and thyA genes. Briefly, spacer 1 (5-[…]-3), spacer 2 (5-[…]-3), spacer 3 (5-[…]-3), and spacer 4 (5-[…]-3) were synthesized, and then, the construction of the targeting plasmid psgRNA was performed in a total volume of 25 µL. Subsequently, 1.5 µL of each newly constructed psgRNA and dCas9 was simultaneously electroporated into the competent cells of MG1655. MG1655 containing unmodified psgRNA and dCas9 was used as a control. Anhydrotetracycline at a final concentration of 0.5 µg/mL was used to induce gene repression. RT-qPCR was used to verify the expression of the genes.

Assay [12] concerns MG1655 dnaA-i. Nature of the assay: MIC, CRISPRi dnaA-repressed MG1655. Type of assay: cell-based. The settings on record: Escherichia coli, broth microdilution, CRISPRi repression of dnaA, anhydrotetracycline 0.5 µg/mL, read-out: MIC values of MG1655 with gene silencing, dnaA-i.
Source text: as §2, §3

For assay [13], the system named is MG1655 deoB-i. Nature of the assay: MIC, CRISPRi deoB-repressed MG1655. The settings on record: Escherichia coli, broth microdilution, CRISPRi repression of deoB, read-out: MIC values of MG1655 with gene silencing, deoB-i. Type of assay: cell-based.
Source text: as §2, §3

For assay [14], the system named is MG1655 icd-i. Nature of the assay: MIC, CRISPRi icd-repressed MG1655. The class given is cell-based. The settings on record: Escherichia coli, broth microdilution, CRISPRi repression of icd, read-out: MIC values of MG1655 with gene silencing, icd-i.
Source text: as §2, §3

Assay [15] deals with MG1655 thyA-i. Nature of the assay: MIC, CRISPRi thyA-repressed MG1655. The note with it: for MIC: Escherichia coli, MG1655, broth microdilution, CRISPRi repression of thyA, read-out: MIC values of MG1655 with gene silencing, thyA-i. Type of assay: cell-based, Escherichia coli.
Source text: as §2, §3

Assay [16] concerns chloramphenicol-resistant bacteria (CHL80). The note with it: 15-min exposure, tenfold the MIC of MG1655, 1 × 10^6 CFU log-phase, CFU counting. The procedure:
(§4) Bacteria were cultured at 37°C and 200 rpm to the logarithmic phase (1 × 10^6 CFU). The corresponding drugs, with a final concentration of tenfold the MIC of MG1655, were added. At 15, 30, 60, 90, and 120 min, 50 µL of the mixture was serially diluted 10-fold and dropped on an LB agar plate for CFU counting.

Assay [17] has as its system original MG1655. The note with it: tenfold the MIC of MG1655, 15-120 min, CFU counting. The procedure:
as §4

Assay [18] relates to trimethoprim-resistant strains (TMP30). Nature of the assay: Disk diffusion experiment, trimethoprim-resistant strains. The class given is cell-based, Escherichia coli. The note with it: drug 2,048 µg/mL, LB agar, 37°C 24 h. The procedure: (§5) Fifty microliters of bacterial cultures was spread evenly onto LB agar. A prepared circular sterile filter paper was pasted on the center of the petri dish, and the corresponding drugs with a concentration of 2,048 µg/mL were dropped on the center of the circular filter paper. The petri dishes were placed at 37°C for 24 h, and the diameters of the sterile growth circles were measured.
A general note: In agar diffusion tests the substance spreads into inoculated agar from a disc or well.

Assay [19] has as its system mice infected with MG1655. The settings on record: 5.0 × 10^8 CFU i.p.; trimethoprim 60 mg/kg i.p. 1 h after infection; organs at 48 h; n = 6. The procedure: Female BALB/c mice aged 6 to 8 weeks were randomly divided into four groups with six replicates for each group. Of bacterial suspension, 5.0 × 10^8 CFU was intraperitoneally injected to mice for 1 h, followed by a second intraperitoneal injection of trimethoprim (60 mg/kg) or pexiganan (10 mg/kg) or a combination of trimethoprim and pexiganan (30 + 5 mg/kg). The PBS injection group was used as a control. After 48 h, the liver, spleen, and kidneys of the mice were aseptically removed for CFU measurement.

The test system of assay [20] is chloramphenicol-resistant strains (CHL80). Nature of the assay: Disk diffusion experiment, chloramphenicol-resistant strains. Type of assay: cell-based, Escherichia coli. The note with it: drug 2,048 µg/mL, LB agar, 37°C 24 h. The procedure: as §5
For assay [21], the system named is G. mellonella larvae infected with chloramphenicol-resistant strains. Nature of the assay: G. mellonella infection protection model, chloramphenicol-resistant strain. The class given is in vivo, Galleria mellonella. The settings on record: monotreatment 30 mg/kg at 1 h post-infection, 5 days, n = 8 per group. The procedure:
(§6) The bacterial culture was uniformly diluted with saline to an OD600 of 0.35. G. mellonella larvae (n = 8 per group) were randomly divided, and sterile saline was used as the blank control. In the virulence assessment, 10 µL of bacterial solution was inoculated into each larva using a Hamilton syringe. The survival of larvae was observed and recorded daily for 7 days.
(§7) For the larval infection protection model, larvae were infected with wild-type and antibiotic-resistant strains and treated with a dose of 30 mg/kg of drugs at the left foot of the last gastropod at 1 h post-infection, and the survival was monitored for 5 days.

The test system of assay [22] is G. mellonella larvae infected by the original MG1655. Nature of the assay: G. mellonella infection protection model, original MG1655. Type of assay: in vivo, Galleria mellonella. The note with it: monotreatment 30 mg/kg at 1 h post-infection, 5 days, n = 8 per group. The procedure: as §6, §7
Where [23] appears, read: MG1655, 12 h, read-out: MIC of MG1655 under the pressure of the same drug, generation 10.
Setting [24] is: MG1655, read-out: MIC of MG1655 under the pressure of the same drug, generation primary.
Setting [25] is: MG1655, as E2, generation 20, read-out: MIC of MG1655 under the pressure of the same drug, generation 20.
The mark [26] stands for this setting: MG1655, as E2, generation 30, read-out: MIC of MG1655 under the pressure of the same drug, generation 30.

`O=C1CN(/N=C/c2ccc([N+](=O)[O-])o2)C(=O)N1` [NIT, Nitrofurantoin]: the MIC in [1] (setting [23]) came out at 16 µg/mL; in assay [1] (setting [24]) it was 16 µg/mL; in assay [1] (setting [25]), 16 µg/mL; in [1] (setting [26]), 64 µg/mL; in [1] (MG1655, as E2, generation 40, read-out: MIC of MG1655 under the pressure of the same drug, generation 40), 64 µg/mL; in assay [1] (MG1655, as E2, generation 50, read-out: MIC of MG1655 under the pressure of the same drug, generation 50), 128 µg/mL. Further, the MIC was 256 µg/mL in [1] (MG1655, as E2, generation 60, read-out: MIC of MG1655 under the pressure of the same drug, generation 60); 512 µg/mL in assay [1] (MG1655, as E2, generation 70, read-out: MIC of MG1655 under the pressure of the same drug, generation 70); 16 µg/mL (≈ 67.2 µM) in [2]; 16 µg/mL (≈ 67.2 µM) in [3]; 4 µg/mL (≈ 16.8 µM) in assay [4]; 16 µg/mL (≈ 67.2 µM) in assay [5]. For the same molecule, the MIC in assay [6] came out at 8 µg/mL (≈ 33.6 µM); in [7], 16 µg/mL (≈ 67.2 µM); in [8] it was 8 µg/mL (≈ 33.6 µM); in assay [9], 512 µg/mL (≈ 2150 µM); in [10], 4 µg/mL (≈ 16.8 µM); in [11], 16 µg/mL (≈ 67.2 µM). The MIC came out at 16 µg/mL (≈ 67.2 µM) in assay [12], 16 µg/mL (≈ 67.2 µM) in [13], 16 µg/mL (≈ 67.2 µM) in assay [14] and 8 µg/mL (≈ 33.6 µM) in assay [15]. In assay [10] (MIC of TMP30 compared with MG1655), the “collateral sensitivity of TMP30 (fold change of MIC vs wild-type MG1655)” value is listed as “exceeding fourfold”. Moreover, the “killing of chloramphenicol-resistant bacteria (CFU)” value in assay [16] is recorded as “completely eradicated”. Besides, the “CFU reduction of original MG1655” value in assay [17] is “decreased by less than one-log”. Also, the “inhibition halo on trimethoprim-resistant strains (in words)” value in assay [18] is listed as “significant inhibitory effect”.
Regarding `COc1cc(Cc2cnc(N)nc2N)cc(OC)c1OC` [TMP, Trimethoprim], the MIC in [1] (setting [23]) stood at 128 µg/mL; in assay [1] (setting [24]), 64 µg/mL; in assay [1] (setting [25]) it was 128 µg/mL; in assay [1] (setting [26]) it was 512 µg/mL; in assay [2] it was 128 µg/mL (≈ 441 µM); in assay [3], 64 µg/mL (≈ 220 µM). The MIC in [4], in assay [5], in assay [6], in [7], in assay [8] and in [9] was 128 µg/mL (≈ 441 µM) in each case. The MIC in [10] is 512 µg/mL (≈ 1760 µM); in [11] it was 64 µg/mL (≈ 220 µM); in assay [12], 64 µg/mL (≈ 220 µM); in assay [13] it was 128 µg/mL (≈ 441 µM); in assay [14], 128 µg/mL (≈ 441 µM); in [15], 256 µg/mL (≈ 882 µM). Moreover, the “increase in MIC in thyA-i strains vs original MG1655” value in [15] (CRISPRi thyA repression) is listed as “four-fold increase in MIC”. Also, in assay [19], the “bacterial loads in the liver, spleen, and kidneys of mice infected with MG1655” value was “decreased significantly”.
As to `CC[C@H](C)[C@H](NC(=O)[C@H](CCCNC(=N)N)NC(=O)[C@H](CS)NC(=O)[C@H](CC(C)C)NC(=O)[C@H](CCCCN)NC(=O)[C@H](CCCCN)NC(=O)[C@H](CC(C)C)NC(=O)[C@@H](NC(=O)[C@H](CCCNC(=N)N)NC(=O)[C@H](CS)NC(=O)[C@H](CC(C)C)NC(=O)[C@H](CCCCN)NC(=O)[C@H](CCCCN)NC(=O)[C@@H](N)CC(C)C)[C@@H](C)CC)C(=O)O` [LI, LI14] (H-LKKLCRILKKLCRI-OH; N-terminus and C-terminus assumed), in [20], the “inhibition halo on chloramphenicol-resistant strains (in words)” value is reported as “noticeable inhibitory effect”. Besides, the “survival rate of larvae infected with chloramphenicol-resistant strains” value in assay [21] was 62.5%. In addition, the “survival of larvae infected by the original MG1655” value in assay [22] is on record as “all larvae infected by the original MG1655 died”.
